We go through eleven compounds from ChEMBL document CHEMBL1201862, “PubChem BioAssay data set” (2004).

Molecules are shown by their SMILES.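 Following 48 hours of exposure in 96-well plates, responses at five concentrations were used to interpolate endpoints linearly. GI50 is the concentration that inhibits growth by half.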 The source made the active and inactive calls. No stated cut-off is given here; in the data, active = GI50 up to about 1.1 µM and inactive = higher.

Among the test systems are A549; BT-549; CAKI-1; CCRF-CEM; DU-145; EKVX; HCC 2998; HCT-116; HT-29; K562; KM12; Malme-3M; NCI-H23; NCI-H460; SF-268; SK-MEL-2; T47D; UACC-62; OVCAR-4; RXF 393.
Common to all, as to experiment: NCI tumour cell line growth inhibition, 48 h

As to `CN1CC2=C(N=C(S)NC2c2ccccc2)/C(=C/c2ccccc2)C1` (stereo not drawn), the GI50 was 30.3 µM (inactive) in the assay with A549; > 100 µM (inactive) with BT-549; > 100 µM (inactive) in the assay on CAKI-1; 31.1 µM (inactive) in the assay on CCRF-CEM; > 100 µM (inactive) in the assay with DU-145; 75.2 µM (inactive) in the assay with EKVX. The GI50 in the assay on HCC 2998 is 29.3 µM (inactive); with HCT-116 it was 13 µM (inactive); with HT-29, 27 µM (inactive); in the assay on K562, 33 µM (inactive); in the assay with KM12, 25.6 µM (inactive); in the assay with Malme-3M it was 30.1 µM (inactive). Further, the GI50 is 56.2 µM (inactive) in the assay with NCI-H23; 32.1 µM (inactive) in the assay with NCI-H460; > 100 µM (inactive) in the assay with SF-268; 45.9 µM (inactive) in the assay with SK-MEL-2; 44.8 µM (inactive) in the assay on T47D; 28.5 µM (inactive) in the assay on UACC-62.

For the compound `COC(=O)c1ccccc1Nc1ccccc1C(=O)OC`, the GI50 with A549 is 93.1 µM (inactive); with BT-549, > 100 µM (inactive); in the assay on CAKI-1 it was > 100 µM (inactive); in the assay on CCRF-CEM it was > 100 µM (inactive); in the assay on DU-145, > 100 µM (inactive); with EKVX, > 100 µM (inactive). The GI50 was > 100 µM (inactive) with HCT-116; 91.2 µM (inactive) with HT-29; > 100 µM (inactive) with K562; > 100 µM (inactive) in the assay with KM12; 37.9 µM (inactive) in the assay on Malme-3M; > 100 µM (inactive) with NCI-H23. The GI50 with NCI-H460 was > 100 µM (inactive); in the assay with OVCAR-4, 48.9 µM (inactive); in the assay with RXF 393, 68.7 µM (inactive); in the assay with SF-268, 54.2 µM (inactive); with SK-MEL-2, > 100 µM (inactive); in the assay on T47D, 44.2 µM (inactive). The GI50 in the assay on UACC-62 is > 100 µM (inactive).

As to `CNc1cc(OCc2ccccc2)c(OC)cc1C(=O)N1CCC[C@H]1CO`, the GI50 with A549 was > 100 µM (inactive); in the assay with BT-549, > 100 µM (inactive); in the assay with CAKI-1, > 100 µM (inactive); in the assay with CCRF-CEM it was 81.5 µM (inactive); with DU-145 it was > 100 µM (inactive); with EKVX it was > 100 µM (inactive). Further, the GI50 was > 100 µM (inactive) in the assay on HCT-116; > 100 µM (inactive) in the assay on HT-29; > 100 µM (inactive) in the assay on KM12; > 100 µM (inactive) in the assay with Malme-3M; > 100 µM (inactive) in the assay with NCI-H23; 70.1 µM (inactive) in the assay on OVCAR-4. The GI50 in the assay on RXF 393, in the assay on SF-268, in the assay with SK-MEL-2, with T47D and with UACC-62 was > 100 µM (inactive) in each case.

In the case of `CN(C)CC1CCC/C(=C\c2ccc(Cl)cc2)C1=O` (stereo not drawn), the GI50 is 16.9 µM (inactive) in the assay with A549; 1.73 µM (inactive) with BT-549; 1.93 µM (inactive) in the assay on CAKI-1; 0.713 µM (active) with CCRF-CEM; 15.5 µM (inactive) in the assay with DU-145; 11.2 µM (inactive) in the assay with EKVX. Also, the GI50 was 7.38 µM (inactive) with HCC 2998; 1.8 µM (inactive) with HCT-116; 9.27 µM (inactive) with HT-29; 1 µM (active) with K562; 1.69 µM (inactive) in the assay on KM12; 1.91 µM (inactive) in the assay with Malme-3M. Besides, the GI50 in the assay on NCI-H23 was 8.02 µM (inactive); in the assay on NCI-H460, 17.3 µM (inactive); with OVCAR-4, 2.79 µM (inactive); with SF-268 it was 5.2 µM (inactive); in the assay on SK-MEL-2 it was 1.41 µM (inactive); in the assay on T47D, 3.49 µM (inactive). In the assay on UACC-62, the GI50 was 2.08 µM (inactive).

For `CCOC(=O)[C@@H]1ON2OC(OC3CCCC3(c3ccccc3)c3ccccc3)C(OC(C)=O)[C@H]3OC(=O)[C@@H]1C32` (stereo partly drawn), the GI50 in the assay on A549 is 47.2 µM (inactive); in the assay with BT-549, > 100 µM (inactive); with CAKI-1 it was > 100 µM (inactive); in the assay on CCRF-CEM it was 29.2 µM (inactive); with DU-145, > 100 µM (inactive); with EKVX it was 89.7 µM (inactive). Further, the GI50 in the assay on HCC 2998 was 35.1 µM (inactive); in the assay on HCT-116 it was 29.6 µM (inactive); with HT-29 it was 62.1 µM (inactive); in the assay with K562, 97.9 µM (inactive); with KM12, > 100 µM (inactive); in the assay with NCI-H23, > 100 µM (inactive). Further, the GI50 was > 100 µM (inactive) in the assay with NCI-H460; 27.4 µM (inactive) with RXF 393; > 100 µM (inactive) in the assay with SF-268; 68.7 µM (inactive) with SK-MEL-2; 46.6 µM (inactive) in the assay on T47D; > 100 µM (inactive) with UACC-62.

As to `O=C(NNC(=O)c1ccco1)c1ccco1`, the GI50 in the assay with A549, with BT-549, in the assay on CAKI-1, in the assay with CCRF-CEM, in the assay with DU-145 and in the assay with EKVX was > 100 µM (inactive) each time. Besides, the GI50 in the assay with HCT-116 is > 100 µM (inactive); in the assay with HT-29, > 100 µM (inactive); in the assay with K562 it was > 100 µM (inactive); in the assay on KM12, > 100 µM (inactive); with Malme-3M, 39.6 µM (inactive); with NCI-H460 it was > 100 µM (inactive). Moreover, the GI50 in the assay with OVCAR-4, in the assay on RXF 393, in the assay with SF-268, in the assay with SK-MEL-2, in the assay with T47D and with UACC-62 was > 100 µM (inactive) throughout.

As to `O=C1COc2cc(N3CCN(c4cccc(C(F)(F)F)c4)CC3)ccc2N1`, the GI50 with A549, in the assay with BT-549, in the assay with CAKI-1, in the assay with CCRF-CEM, in the assay on DU-145 and in the assay with EKVX was > 100 µM (inactive) throughout. Also, the GI50 in the assay on HCC 2998, with HCT-116, with HT-29, with K562, in the assay with KM12 and with NCI-H23 was > 100 µM (inactive) throughout. Besides, the GI50 in the assay with NCI-H460, with OVCAR-4, in the assay with SF-268, in the assay on SK-MEL-2, in the assay on T47D and in the assay on UACC-62 was > 100 µM (inactive) each time.

Take `Cc1ccc2c(/C=C/c3ccc(N(C)C)cc3)ccc(C(C)C)cc1-2`: the GI50 is > 100 µM (inactive) in the assay with A549; > 100 µM (inactive) with BT-549; > 100 µM (inactive) in the assay with CAKI-1; 37.2 µM (inactive) in the assay with CCRF-CEM; > 100 µM (inactive) in the assay on DU-145; 94.2 µM (inactive) in the assay on EKVX. The GI50 in the assay on HCT-116 is > 100 µM (inactive); in the assay with HT-29, 49.1 µM (inactive); with K562, > 100 µM (inactive); with KM12, > 100 µM (inactive); in the assay with Malme-3M it was > 100 µM (inactive); in the assay on NCI-H23 it was > 100 µM (inactive). The GI50 with RXF 393 is > 100 µM (inactive); with SF-268, > 100 µM (inactive); with SK-MEL-2, > 100 µM (inactive); in the assay with T47D it was 36.9 µM (inactive); with UACC-62 it was > 100 µM (inactive).

For the compound `C=C1C(=O)OC2CC(=C)C3CC=C(C)C3CC12` (stereo not drawn), the GI50 in the assay on A549 was 35.5 µM (inactive); in the assay on BT-549, 14.7 µM (inactive); in the assay on CAKI-1, 15 µM (inactive); in the assay on CCRF-CEM, 8.24 µM (inactive); in the assay on DU-145, > 10 µM (inactive); with EKVX, 64.6 µM (inactive). Also, the GI50 in the assay with HCC 2998 was 21.1 µM (inactive); in the assay on HCT-116 it was 18.4 µM (inactive); in the assay on HT-29, 13 µM (inactive); with K562 it was 11 µM (inactive); with KM12, 41.1 µM (inactive); in the assay on Malme-3M it was > 10 µM (inactive). For the same compound, the GI50 in the assay with NCI-H460 is 28.8 µM (inactive); in the assay on OVCAR-4 it was 27.3 µM (inactive); in the assay with SF-268, 34 µM (inactive); in the assay on SK-MEL-2, 11.7 µM (inactive); in the assay on T47D it was 14.3 µM (inactive); in the assay with UACC-62, 10.4 µM (inactive).

For the compound `Nc1cccc2nnccc12`, the GI50 with A549, with BT-549, in the assay with CAKI-1, in the assay with CCRF-CEM, in the assay with DU-145 and in the assay with EKVX was > 100 µM (inactive) throughout. In addition, the GI50 with HCT-116, with HT-29, in the assay with KM12, in the assay on Malme-3M, in the assay with NCI-H23 and in the assay on NCI-H460 was > 100 µM (inactive) throughout. In addition, the GI50 in the assay on RXF 393, with SF-268, with SK-MEL-2, in the assay with T47D and in the assay with UACC-62 was > 100 µM (inactive) in each case.

On to `COC1=C(C)C(=O)c2c(c(COC(N)=O)c3n2CC2C3N2C)C1=O` (stereo not drawn), for which the GI50 with A549 was < 0.01 µM (active); with BT-549, 0.0222 µM (active); with CAKI-1, < 0.01 µM (active); in the assay on CCRF-CEM, 0.0154 µM (active); with DU-145 it was < 0.01 µM (active); with EKVX, 0.14 µM (active). Besides, the GI50 in the assay on HCT-116 was < 0.0125 µM (active); in the assay with HT-29, < 0.01 µM (active); with K562, 0.051 µM (active); with KM12, < 0.0166 µM (active); with Malme-3M it was 0.0495 µM (active); in the assay on NCI-H23, < 0.0108 µM (active). Moreover, the GI50 in the assay with NCI-H460 was < 0.01 µM (active); with OVCAR-4 it was 0.0826 µM (active); with RXF 393, < 0.0331 µM (active); in the assay with SF-268, 0.0256 µM (active); with SK-MEL-2, 0.0361 µM (active); with T47D, 0.0301 µM (active). In the assay on UACC-62, the GI50 was < 0.0114 µM (active).
